Where two headings read alike, the source gives them in different places.
How the values were obtained:
[1] = PBS (pH 7.4) solubility; assay type: physicochemical
Description: (§1) Water solubility, log D, and PAMPA-BBB were evaluated using the protocols as described in Omran, et. al. [Omran, Z., et. al., Chem. Pharm. Bull., 2019, 67, 1208-1210, incorporated herein by reference in its entirety].

[2] = LogD; assay type: physicochemical
Description: as §1

[3] = BBB-Parallel Artificial Membrane Permeability Assay (BBB-PAMPA); assay type: in vitro ADME
Description: The physicochemical properties of the new compounds were evaluated (Table 1). […] Consequently, these derivatives lost their BBB penetrability, as predicted by the BBB-Parallel Artificial Membrane Permeability Assay (BBB-PAMPA), whereas their parent alkaloids had free passage through the BBB.
as §1

[4] = Mouse microsomal liver stability assay; conditions: mouse hepatic microsomes, 2 μM, 37° C.
Description: Protoc. […] Microsomal incubations were carried out in 96-well plates in 5 aliquots of 40 μL each. […] Control incubations were performed by replacing the NADPH-cofactor system with PBS. The additional control incubations in PBS (with 3.3 mM MgCl2) without added microsomes were carried out in this study. […] The incubations were performed in duplicates. Five time points over 40 min had been analyzed. The reactions were stopped by adding 12 volumes of 90% acetonitrile-water to incubation aliquots, followed by protein sedimentation by centrifuging at 5500 rpm for 3 min. The supernatants were analyzed using LC-MS as mentioned above.

[5] = tested on: HEK293; test: Cytotoxicity under normoxia (MTT), HEK293; assay type: cell-based, Human
Description: (§2) The cytotoxicity of the compounds 5a-c and their parent alkaloids was evaluated by the 3-[4,5-dimethylthiazole-2-yl]-2,5-diphenyltetrazolium bromide (MTT) assay against 5 cancerous and 2 non-cancerous cell lines (Table 4).
(§3) The eight cell lines HEK293 (Human embryonic kidney 293), CHO-Kt (Chinese hamster ovary K1), MCF-7 cells (Human breast adenocarcinoma), HCT116 (human colorectal carcinoma), RKO (Human rectal carcinoma), SW480 (human colorectal carcinoma), H460 (Human lung cancer), and MRCS (Normal human fetal lung fibroblast), were obtained from the ATCC. The cell lines were routinely grown in alpha minimum essential medium (α-MEM) containing 5% fetal calf serum (FCS). The appropriate number of cells (HCT116=400 cells/well, H460 cells=600 cells/well) were seeded into 96-well plates under normoxic or hypoxic conditions. Cells were plated in 100 μL α-MEM containing 10% FCS, 10 mM D-Glucose and 0.2 mM 20-deoxycytidine. After incubation for 2 h, the compounds were added at the appropriate concentration and incubated for further 4 h. The cells were then washed three times with drug-free α-MEM (containing 5% FCS and pen/strep). The plates were then incubated for 5 days under normoxic conditions. The cells were stained with sulphorhodamine B to measure total cells as per the standard procedure described in Skehan, et. al. [Skehan, P., et. al., J. Natl. Cancer Inst., 1990, 82, 1107-1112, incorporated herein by reference in its entirety]. The IC50 was determined by interpolation as the compound concentration reducing staining to 50% of controls on the same plate as per the standard procedure described in Guise, et. al. [Guise, C. P., et. al., Biochem. Pharmacol., 2007, 74, 810-820, incorporated herein by reference in its entirety].

[6] = tested on: CHO-K1; test: Cytotoxicity under normoxia (MTT), CHO-K1; assay type: cell-based, Chinese hamster
Description: as §2, §3

[7] = tested on: MCF7; test: Cytotoxicity under normoxia (MTT), MCF7; assay type: cell-based, Human
Description: as §2, §3

[8] = tested on: HCT116; test: Cytotoxicity under normoxia (MTT), HCT116; assay type: cell-based, human
Description: as §2, §3

[9] = tested on: RKO; test: Cytotoxicity under normoxia (MTT), RKO; assay type: cell-based, Human; conditions: read-out: IC50 RKO
Description: as §2, §3

[10] = tested on: SW480; test: Cytotoxicity under normoxia (MTT), SW480; assay type: cell-based, human
Description: as §2, §3

[11] = tested on: MRC5; test: Cytotoxicity under normoxia (MTT), MRC5; assay type: cell-based, human
Description: as §2, §3

[12] = tested on: HCT116; test: Cytotoxicity under normoxia and hypoxia (anaerobic chamber), HCT116; assay type: cell-based, human; conditions: for HCR (Hypoxia Cytotoxicity Ratio = normoxic IC50/hypoxic IC50): HTC 116; for IC50: 4 h exposure
Description: (§4) The ability of the designed prodrugs to liberate the active alkaloids in hypoxic tumors was evaluated by testing them under hypoxic conditions using an anaerobic chamber. The three prodrugs 5a-c and their parent alkaloids as well as the reference compounds PR-104A, the parent alcohol form of the phosphate pre-prodrug PR-104, and evofosfamide were tested using the HCT116 and H460 cell lines under both normoxic and hypoxic conditions (Table 5). The prodrugs were much less cytotoxic than the parent drugs, in agreement with the results using the other cell lines described above (see FIG. 6).
as §3

[13] = tested on: H460; test: Cytotoxicity under normoxia and hypoxia (anaerobic chamber), H460; assay type: cell-based, Human; conditions: for HCR (Hypoxia Cytotoxicity Ratio = normoxic IC50/hypoxic IC50): H460; for IC50: 4 h exposure
Description: as §4, §3

[14] = normoxia, read-out: IC50 HEK293
[15] = normoxia, read-out: IC50 CHO-K1
[16] = normoxia, read-out: IC50 HCT116
[17] = HTC 116, hypoxia, read-out: IC50 (Hypoxia)
[18] = HTC 116, normoxia, read-out: IC50 (Normoxia)
[19] = H460, hypoxia, read-out: IC50 (Hypoxia)
[20] = H460, normoxia, read-out: IC50 (Normoxia)

| SMILES | PBS (pH 7.4) Solubility μM Mean ± SE [1] [μM] | LogD Mean ± SE [2] | Permeability (Papp) Log [10^−6 cm/s] Mean ± SE [3] | Kel, min^−1 (elimination rate constant) [4] [min⁻¹] | t1/2, min [4] [h] | IC50 [5, 14] [nM] | IC50 [6, 15] [nM] | IC50 ([7]; normoxia, read-out: IC50 MCF7) [nM] | IC50 [8, 16] [nM] | IC50 ([9]; normoxia) [nM] | IC50 ([10]; normoxia, read-out: IC50 SW480) [nM] | IC50 ([11]; normoxia, read-out: IC50 MRC5) [nM] | HCR (Hypoxia Cytotoxicity Ratio = normoxic IC50/hypoxic IC50) [12] | IC50 [12, 17] [nM] | IC50 [12, 18] [nM] | HCR (Hypoxia Cytotoxicity Ratio = normoxic IC50/hypoxic IC50) [13] | IC50 [13, 19] [nM] | IC50 [13, 20] [nM] | further results |
| --- | --- | --- | --- | --- | --- | --- | --- | --- | --- | --- | --- | --- | --- | --- | --- | --- | --- | --- | --- |
| COc1ccc2c3c(c4cc(OC)c(OC)cc4c2c1)C[C@H]1CCCN1C3 [(R)-Antofine, (R)-antofine] | 27 ± 2 | 3.68 ± 0.03 | −5.6 ± 0.58 Log [10^−6 cm/s] | 0.002 ± 0 | 1.12 ± 0.035 | 340 ± 43 | 33 ± 50 | 2 | 2 | 2 | 9 ± 2 | 6 ± 2 | 0.4 | 16.7 | 23.9 | 0.6 | 25.4 | 29.2 | – |
| COc1cc2c3c(c4cc(OC)c(OC)cc4c2cc1OC)CN1CCC[C@@H]1C3 [(R)-Tylophorine] | – | – | – | – | – | – | – | 101 ± 88 | 440 ± 36 | 338 ± 61 | 1150 ± 244 | 95 ± 6 | 0.6 | 56.4 | 1710 | 1.1 | 161 | 175 | – |
| COc1cc2c3c(c4cc(OC)c(OC)cc4c2cc1OC)CN1CCC[C@H]1C3 [(S)-Tylophorine] | 2 ± 0 | 3.14 ± 0.02 | −5.4 ± 0.17 Log [10^−6 cm/s] | 0.005 ± 0 | 2.125 ± 0.05 | 16 ± 26 | 35 ± 42 | 62 ± 13 | 85 ± 6 | 202 ± 3 | 69 ± 20 | 27 ± 2 | 0.5 | 50.1 | 35.1 | 1.1 | 102 | 108 | – |
| CN(C)CCCN1c2ccccc2Sc2ccc(Cl)cc21 [Chlorpromazine] | – | – | −5.4 ± 0.13 Log [10^−6 cm/s] | – | – | – | – | – | – | – | – | – | – | – | – | – | – | – | – |
| CN1CCN(C2=Nc3cc(Cl)ccc3Nc3ccccc32)CC1 [Clozapine] | – | – | −5.1 ± 0.12 Log [10^−6 cm/s] | – | – | – | – | – | – | – | – | – | – | – | – | – | – | – | – |
| COc1ccc2c3c(c4cc(OC)c(OC)cc4c2c1)C[C@H]1CCC[N+]1(Cc1c([N+](=O)[O-])ncn1C)C3.[Br-] (stereo partly drawn) [Compound 5a, (13aR)-2,3,6-trimethoxy-10-((1-methyl-4-nitro-1H-imidazol-5-yl)methyl)-10,11,12,13,13a, 14-hexahydro-9H-dibenzo[f,h]pyrrolo[1,2-b]isoquinolin-10-ium bromide] | 154 ± 0 | 0.69 ± 0.01 | <−7 Log [10^−6 cm/s] | – | – | – | – | – | – | – | – | – | – | – | – | – | – | – | IC50 ([5]; Homo sapiens, HEK293, read-out: IC50 HEK293): 5080 ± 519 nM; IC50 ([6]; Cricetulus griseus, CHO-K1, read-out: IC50 CHO-K1): 1680 ± 542 nM; IC50 ([7]; Homo sapiens, MCF7, read-out: IC50 MCF7): 1530 ± 144 nM; IC50 ([8]; Homo sapiens, HCT-116, read-out: IC50 HCT116): 1040 ± 21 nM; IC50 ([9]; Homo sapiens, RKO): 2030 ± 267 nM; IC50 ([10]; Homo sapiens, SW480, read-out: IC50 SW480): 1350 ± 0.126 nM; IC50 ([11]; Homo sapiens, MRC5, read-out: IC50 MRC5): 327 ± 147 nM; IC50 ([12]; Homo sapiens, HCT-116, HTC 116, hypoxia, read-out: IC50 (Hypoxia)): 425 nM; IC50 ([12]; Homo sapiens, HCT-116, HTC 116, normoxia, read-out: IC50 (Normoxia)): 16500 nM; IC50 ([13]; Homo sapiens, NCI-H460, H460, hypoxia, read-out: IC50 (Hypoxia)): 618 nM; IC50 ([13]; Homo sapiens, NCI-H460, H460, normoxia, read-out: IC50 (Normoxia)): 15800 nM |

Source: patent US11548891B1, “Quaternary ammonium salts of phenanthroindolizidine and phenanthroquinolizidine alkaloids as hypoxia-targeted anticancer agents” (BATTERJEE MEDICAL COLLEGE, priority 2022, dated 2023)
